Experimental data reported in patent US11584760B2, “Dithio ETP derivatives” (priority 2016, dated 2023).

How the values were obtained:
[1] = system: A2058 (human melanoma); test: in vitro cytotoxicity against A2058 cancer cell line; assay type: cell-based; settings: A2058 cells; for in vitro cytotoxicity (activity against the cancer cell line): data shown in FIG. 2
Method: (§1) FIGS. 2A and 2B. In vitro cytotoxicity against two invasive cancer cell lines, DU145 (human prostate cancer) and A2058 (human melanoma) were determined for different analogs.
(§2) Four examples of compounds of structure II with R═—C(O)R or —C(O)OR′ were prepared as depicted in FIG. 2 and their in vitro cytotoxicity against two invasive cancer cell lines, DU145 (human prostate cancer) and A2058 (human melanoma) were determined.

[2] = system: DU145 (human prostate cancer); test: in vitro cytotoxicity against DU145 cancer cell line; assay type: cell-based; settings: DU145 cells; for in vitro cytotoxicity (activity against the cancer cell line): data shown in FIG. 2
Method: as §1, §2

[3] = system: Hut 78 cells (cutaneous T-cell lymphoma, CTCL); test: CTCL tumor model: Hut 78 cells injected subcutaneously into NSG mice; assay type: in vivo; settings: 20 mg/kg orally (gavage), 3 consecutive days/week; treatment started at tumor size approx. 200 mm^3; vs vehicle
Method: NSG (NOD. Cg-Prkdcscid II2rgtm1Wjl/SzJ) mice (5 to 7 weeks of age) were obtained from an-animal in-house breeding facility. The facility mice stock derived from mice obtained from Jackson Laboratory. All animal experiments were conducted in accordance with protocol approved by the City of Hope Beckman Research Institute IACUC.
CTCL tumor model: 3 million of Hut 78 cells in 100 μl (cells in PBS:Matrigel=1:1) injected subcutaneously.
The compound stock of 60 mg/ml was made in DMSO and diluted to 2 mg/ml in 30% Solutol. The compound was administered orally (by gavage) at 10 μl per gram of mice body weight in a dose of 20 mg/kg for 3 consecutive days/week.
100 μl of 3×10^6 Hut78 cells were injected subcutaneously into mice left flanks. The treatments were initiated when the tumor size reached approximately 200 mm^3. The compound or the vehicle alone were administered for 3 consecutive days/week.

For `CC(=O)S[C@@]1(C)C(=O)N2[C@@H](c3ccc4c(c3)OCO4)[C@@](C)(C#N)C[C@]2(SC(C)=O)C(=O)N1C` (relative stereo) [LEO-16-1833, Rel-S, S′-((3S,6S,7S,8aS)-6-(benzo[d][1,3]dioxol-5-yl)-7-cyano-2,3,7-trimethyl-1,4-dioxohexahydropyrrolo[1,2-c]pyrazine-3,8a(6H)-diyl) diethanethioate], the “activity compared with the corresponding ETP structure I (p=2)” value ([1]; FIG. 2) was “nearly identical”, the “in vitro cytotoxicity (activity against the cancer cell line)” value (“in vitro cytotoxicity” for short) [1] was “good activity” and the “activity compared with the corresponding ETP structure I (p=2)” value ([2]; FIG. 2) was “nearly identical”. The “in vitro cytotoxicity” value [2] was “good activity”.

`CN1C(=O)[C@@]2(SC(=O)Cc3ccccc3)C[C@](C)(C#N)[C@H](c3ccc4c(c3)OCO4)N2C(=O)[C@]1(C)SC(=O)Cc1ccccc1` (relative stereo) [LEO-16-1835] was tested, and the “in vitro cytotoxicity” value [1] was “good activity” and the “in vitro cytotoxicity” value [2] was “good activity”.

With `CN1C(=O)[C@@]2(SC(=O)c3ccccc3)C[C@](C)(C#N)[C@H](c3ccc4c(c3)OCO4)N2C(=O)[C@]1(C)SC(=O)c1ccccc1` (relative stereo) [LEO-16-1836] the “in vitro cytotoxicity” value [1] was “good activity” and the “in vitro cytotoxicity” value [2] was “good activity”.

`CC(=O)S[C@@]1(C)C(=O)N2[C@@H](c3ccc4c(c3)OCO4)[C@@](C)(C#N)C[C@]2(SC(C)=O)C(=O)N1C` [LEO-16-1845, S,S′-((3S,6S,7S,8aS)-6-(benzo[d][1,3]dioxol-5-yl)-7-cyano-2,3,7-trimethyl-1,4-dioxohexahydropyrrolo[1,2-c]pyrazine-3,8a(6H)-diyl) diethanethioate] was tested, and the “inhibition of the tumor size” value [3] was 86.5%.
